Experimental data: PubChem BioAssay (NCI)
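Briefly, cells in 96-well plates were exposed to five compound concentrations for 48 h, and endpoints were estimated by linear interpolation. The concentration for full growth arrest is given as TGI.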

Assays:
Experiment in all cases: NCI anticancer screen, dose series, 48 h
RPMI-8226 leukemia = tested on: RPMI-8226 leukemia
SF-268 CNS = tested on: SF-268 CNS
SNB-19 CNS = tested on: SNB-19 CNS
KM12 colon = tested on: KM12 colon
HL-60(TB) leukemia = tested on: HL-60(TB) leukemia
HOP-92 NSCLC = tested on: HOP-92 NSCLC
UO-31 renal = tested on: UO-31 renal
IGROV1 ovarian = tested on: IGROV1 ovarian
UACC-62 melanoma = tested on: UACC-62 melanoma
RXF 393 renal = tested on: RXF 393 renal
HOP-62 NSCLC = tested on: HOP-62 NSCLC
U251 CNS = tested on: U251 CNS
COLO 205 colon = tested on: COLO 205 colon
HCT-15 colon = tested on: HCT-15 colon
M14 melanoma = tested on: M14 melanoma
HCC-2998 colon = tested on: HCC-2998 colon
SK-MEL-5 melanoma = tested on: SK-MEL-5 melanoma
TK-10 renal = tested on: TK-10 renal
NCI-H23 lung = tested on: NCI-H23 lung
SK-MEL-28 melanoma = tested on: SK-MEL-28 melanoma

Compound	TGI (RPMI-8226 leukemia) [µM]	TGI (SF-268 CNS) [µM]	TGI (SNB-19 CNS) [µM]	TGI (KM12 colon) [µM]	TGI (HL-60(TB) leukemia) [µM]	TGI (HOP-92 NSCLC) [µM]	TGI (UO-31 renal) [µM]	TGI (IGROV1 ovarian) [µM]	TGI (UACC-62 melanoma) [µM]	TGI (RXF 393 renal) [µM]	TGI (HOP-62 NSCLC) [µM]	TGI (U251 CNS) [µM]	TGI (COLO 205 colon) [µM]	TGI (HCT-15 colon) [µM]	TGI (M14 melanoma) [µM]	TGI (HCC-2998 colon) [µM]	TGI (SK-MEL-5 melanoma) [µM]	TGI (TK-10 renal) [µM]	TGI (NCI-H23 lung) [µM]	TGI (SK-MEL-28 melanoma) [µM]
O=C1OCc2cccc3c2-c2c1cccc2C(=O)OC3	> 100	> 100	> 100	> 100	> 100	92.2	> 100	> 100	> 100	> 100	> 100	> 100	> 100	> 100	> 100	> 100	> 100	> 100	> 100	> 100
c1ccc(-c2nnc(-c3nsc4ccccc34)o2)cc1	> 100	> 100	> 100	> 100	> 100	> 100	> 100	> 100	> 100	> 100	> 100	> 100	> 100	> 100	> 100	> 100	> 100	> 100	> 100	> 100
